In US20080051400A1, “Methods for treating or preventing anemia or thrombocytopenia using a triheterocyclic compound” (Gemin X Biotechnologies Inc., priority 2006, published 2008):

Key:
[1] = test system: patients having myelodysplastic syndromes (MDS); experiment: Multi-center, open label, dose escalation study in patients having myelodysplastic syndromes (MDS); format: in vivo, human
Procedure: In a multi-center, open label, dose escalation study, a group of eight patients having myelodysplastic syndromes (MDS) received intravenous doses of 7-40 mg/m^2 of the mesylate salt of Compound 1 administered as a 24-hour infusion every two weeks. These infusions were administered over a period of several weeks to several months, the first cycle of infusion was administered in a clinical unit but the subsequent four cycles were administered in the ambulatory setting using portable infusion pumps.

[2] = test system: patients having chronic lymphocytic leukemia (CLL); experiment: Multi-center, double-blind, dose-ranging study in patients having chronic lymphocytic leukemia (CLL); format: in vivo, human
Procedure: In a multi-center, double-blind, dose-ranging study, two groups of patients having chronic lymphocytic leukemia (CLL) received intravenous doses of either 3.5-14 mg/m^2 of the mesylate salt of Compound 1 administered as a 1-hour infusion, or a 20-40 mg/m2 dose via a 3-hour infusion. These infusions were administered over a period of several weeks to several months.

`COC1=CC(c2cc3ccccc3[nH]2)=N/C1=C\c1[nH]c(C)cc1C` [Compound 1] was tested, and the “patients who showed hematological improvement in hemoglobin levels” value ([1]; MDS patients, mesylate salt i.v. 7-40 mg/m^2 as 24-hour infusion every two weeks, FIG. 2A) was “Three out of eight patients”, the “patients who showed platelet count elevation” value ([1]; MDS patients, mesylate salt i.v. 7-40 mg/m^2 as 24-hour infusion every two weeks, FIG. 2B, patient 3 was not thrombocytopenic at start) was “these three patients showed platelet count elevation” and the “patients becoming transfusion independent (hemoglobin responders)” value ([1]; among the three MDS patients with hemoglobin improvement, FIG. 2A) was “two of the patients”. For the same compound, the “patients becoming transfusion independent (platelet responders)” value ([1]; among the three MDS patients with platelet count elevation, FIG. 2B) was “one of the patients”, the “anemic patients who showed significant hemoglobin elevation” value ([2]; CLL patients with initial hemoglobin counts of less than 11 g/dL, mesylate salt i.v. 3.5-40 mg/m^2) was “three out of eleven anemic patients” and the “patients having thrombocytopenia who showed significant increases in platelet count” value ([2]; CLL patients with initial platelet counts less than 150×10^9/L, mesylate salt i.v. 3.5-14 mg/m^2 as 1-hour infusion or 20-40 mg/m2 as 3-hour infusion, over several weeks to several months) was “Four patients out of fourteen patients”. For the same compound, the “patients becoming transfusion independent (hemoglobin responders)” value ([2]; among the three anemic CLL patients with hemoglobin elevation, FIG. 1) was “two of the patients” and the “increase in platelet count in responding patients” value ([2]; four responding thrombocytopenic CLL patients, mesylate salt i.v. 3.5-40 mg/m^2) was “over 50%”.
